Data: PMC12663137 (Nature Communications, 2025)
Values joined by “and” are separate entries in the source; they are usually repeats but may differ in a detail not shown here. Equal values may be shown once.

How the values were obtained:
[1] = target: T1, SV2AEM WT or SV2AEM F188A (Homo sapiens, UniProt Q7L0J3); test: Dissociation kinetics of 3H-UCB-J (Fig. 4E); format: binding; details: WT
T1 construct: expressed in transfected cells; host or cells: HEK293 (ATCC CRL-1573), crude membranes
Method: (§1) Ligand binding studies were carried out using crude membranes prepared from HEK293 cells (ATCC, CRL-1573) overexpressing mVenus-SV2AWT or SV2AEM. Membranes were prepared either from transiently transfected cells or from baculovirus-infected cells as described previously. Cells were washed with DPBS (Ca^2+ and Mg^2+ free), followed by resuspending in cold SH buffer (10 mM HEPES-Tris pH 7.4, 320 mM sucrose) containing protease inhibitor cocktail (MedChemExpress) to a density of 10^7 cells/ml. This cell suspension was homogenized by passing through a bead homogenizer (Isobiotec) with 10-micron clearance bead on ice. The lysate was then centrifuged at 4000 × g for 5 min at 4 °C, and the supernatant was aliquoted, frozen in liquid nitrogen, and stored at −80 °C. The mVenus fluorescence estimated using fluorescence size-exclusion chromatography (FSEC) was used to normalize expression levels of mVenus-SV2A mutants studied as detailed previously. For all binding studies, membranes containing […] protein (estimated by BCA method) per reaction were used.
(§2) After 2 h of incubation, ligand dissociation was initiated with 0.3 µM ^1H-UCB-J and radioactivity was monitored at indicated time points by trapping equal volume of membranes on PEI-treated Unifilter-GF/C 96-well filter plates. Dissociation half-life (t1/2) estimates were obtained by fitting the data to one-phase exponential decay using GraphPad Prism 10.

[2] = target: T2, SV2AEM WT or SV2AEM F188A (Homo sapiens, UniProt Q7L0J3, F188A); test: Dissociation kinetics of 3H-UCB-J (Fig. 4E); format: binding; details: F188A
T2 construct: expressed in transfected cells; host or cells: HEK293 (ATCC CRL-1573), crude membranes
T2 sequence (Q7L0J3 141-742 F188A): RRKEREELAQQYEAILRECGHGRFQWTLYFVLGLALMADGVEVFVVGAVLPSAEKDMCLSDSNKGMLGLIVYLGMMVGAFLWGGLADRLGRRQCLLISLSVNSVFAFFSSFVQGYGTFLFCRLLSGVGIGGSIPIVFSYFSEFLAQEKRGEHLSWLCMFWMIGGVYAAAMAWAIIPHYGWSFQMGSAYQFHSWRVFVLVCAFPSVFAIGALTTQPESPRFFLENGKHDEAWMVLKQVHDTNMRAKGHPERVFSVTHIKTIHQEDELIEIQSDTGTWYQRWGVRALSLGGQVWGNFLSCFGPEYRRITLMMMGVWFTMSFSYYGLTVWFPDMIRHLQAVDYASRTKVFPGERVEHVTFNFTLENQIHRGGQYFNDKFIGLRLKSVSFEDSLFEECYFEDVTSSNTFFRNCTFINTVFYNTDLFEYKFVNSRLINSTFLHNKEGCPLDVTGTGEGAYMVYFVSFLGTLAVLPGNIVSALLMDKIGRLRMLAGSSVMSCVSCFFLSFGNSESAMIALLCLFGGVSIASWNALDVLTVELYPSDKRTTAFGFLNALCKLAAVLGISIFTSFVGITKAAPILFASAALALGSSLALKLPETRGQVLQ
Method: as §1, §2

T1 sequence (Q7L0J3 141-742 F188A): as above

COc1ccccc1NC(=O)CC(C)Cc1cc(C)cc(C)c1 (centres unmarked) [UCB1244283]
3H-UCB-J Binding (%) ([1]; 30 µM UCB1244283, 0 min): 159.90% and 202.86% and 206.18% | 3H-UCB-J Binding (%) ([1]; 30 µM UCB1244283, 4 min): 62.83% and 91.12% and 108.82% | 3H-UCB-J Binding (%) ([1]; 30 µM UCB1244283, 5 min): 85.26% and 105.06% and 94.83% | 3H-UCB-J Binding (%) ([1]; 30 µM UCB1244283, 6 min): 84.91% and 66.93% and 87.39% | 3H-UCB-J Binding (%) ([1]; 30 µM UCB1244283, 7 min): 43.33% and 65.94% and 53.85% | 3H-UCB-J Binding (%) ([1]; 30 µM UCB1244283, 8 min): 39.38% and 72.33% and 39.29% | 3H-UCB-J Binding (%) ([1]; 30 µM UCB1244283, 9 min): 42.32% and 69.81% and 52.93% | 3H-UCB-J Binding (%) ([1]; 30 µM UCB1244283, 10 min): 57.05% and 78.11% and 55.34% | 3H-UCB-J Binding (%) ([1]; 30 µM UCB1244283, 20 min): 16.75% and 27.97% and 21.29% | 3H-UCB-J Binding (%) ([1]; 30 µM UCB1244283, 25 min): 30.01% and 19.16% and 35.10% | 3H-UCB-J Binding (%) ([1]; 30 µM UCB1244283, 50 min): 2.00% and 8.63% and 4.06% | 3H-UCB-J Binding (%) ([1]; 30 µM UCB1244283, 60 min): 0.00% | 3H-UCB-J Binding (%) ([1]; 30 µM UCB1244283, 70 min): 13.54% and 8.21% | 3H-UCB-J Binding (%) ([2]; 30 µM UCB1244283, 0 min): 110.44% and 123.64% | 3H-UCB-J Binding (%) ([2]; 30 µM UCB1244283, 4 min): 30.89% and 37.36% | 3H-UCB-J Binding (%) ([2]; 30 µM UCB1244283, 7 min): 29.68% and 19.59% | 3H-UCB-J Binding (%) ([2]; 30 µM UCB1244283, 8 min): 17.69% and 24.42% | 3H-UCB-J Binding (%) ([2]; 30 µM UCB1244283, 9 min): 11.91% and 16.05% | 3H-UCB-J Binding (%) ([2]; 30 µM UCB1244283, 10 min): 2.24% and 11.65% | 3H-UCB-J Binding (%) ([2]; 30 µM UCB1244283, 15 min): -0.26% and 9.40% | 3H-UCB-J Binding (%) ([2]; 30 µM UCB1244283, 25 min): -3.97% and 3.97% | 3H-UCB-J Binding (%) ([2]; 30 µM UCB1244283, 30 min): -0.60% and 3.19% | 3H-UCB-J Binding (%) ([2]; 30 µM UCB1244283, 40 min): 2.93% and 0.35% | 3H-UCB-J Binding (%) ([2]; 30 µM UCB1244283, 50 min): 6.38% and 7.42% | 3H-UCB-J Binding (%) ([2]; 30 µM UCB1244283, 60 min): 10.53% and 0.69% | 3H-UCB-J Binding (%) ([2]; 30 µM UCB1244283, 70 min): 5.09% and -0.95%
